Tests used:
[1] = tested on: SKOV3ip-GFP cells; assay: Short-term omental engraftment assay; format: in vivo, mice; conditions: 18 h post i.p. injection; 1 mg/kg oral every 12 h; cells pretreated with 10 μM; vs placebo
Procedure: Mice were conditioned to placebo pills for two days prior to drug treatment. […] Consumption was confirmed by visual observation. […] Omenta were harvested from animals 18 h post-injection and placed in ice cold 1X phosphate-buffered saline (PBS) until imaged with an Olympus IX70 inverted fluorescent microscope and Olympus CellSens software. SKOV3ip-GFP cells were subsequently digested from the omentum using 10% NP-40 substitute (Sigma, cat# 74385) in 1X PBS for 30 min at 37 °C. Omenta were gently homogenized using disposable micropestles, centrifuged, and fluorescence intensity was measured using a […] Spectramax M2 plate spectrophotometer (ex:480 nm, em:520 nm).

[2] = tested on: ovarian tumor cell; parameters: method as in PMID 26071482, PMID 26558612, PMID 26206334; conditions: cited from earlier work
[3] = tested on: Rac1; parameters: method as in earlier work; conditions: cell-based assays, ovarian tumor cells; ref 23 (R-ketorolac), 27 (S-ketorolac); cited from earlier work
[4] = tested on: COX-1; parameters: method as in PMID 26558612, PMID 10027870; conditions: cited from earlier work
[5] = Toxicity assessment, blood chemistry after chronic treatment; format: in vivo; conditions: tumor-bearing mice, 5 mg/kg/d, 25 days, Average ± SD
Procedure: For toxicity assessment studies at an increased R-ketorolac dose of 5 mg/kg/d, athymic nude female mice were purchased from Charles River Laboratory (Wilmington, MA, strain code 490). Mice were injected i.p. with 1 × 10^6 SKOV3ip-RLuc-GFP cells suspended in sterile saline. Xenografts were established until tumors reached a bioluminescence imaging (BLI) value of ~ 3 × 10^8 radiance (IVIS SpectrumCT, PerkinElmer, Waltham MA). Mice were conditioned to placebo pills once a day for no less than 3 days during xenograft growth, then randomized to receive placebo or 5 mg/kg/d R-ketorolac for 25 days. Blood was collected via cardiac puncture and 0.2–0.4 mL was added to Lithium Heparin tubes (BD Microtainer, Ref #365965). Samples were mixed thoroughly immediately after filling the tube by gently inverting the tube by hand. Samples were kept and analyzed at room temperature within 60 min of collection. For each sample analysis 100 μl of blood was added to Abaxis Comprehensive Diagnostic Profile cassette (Abaxis, Inc. Union City, CA Ref. # 500–0038-24) and values obtained using Abaxis VetScan2 analyzer.

[6] = mouse, in vivo
Procedure: Foxn1^nu NU /J athymic nude female mice, aged 6–9 weeks, were purchased from The Jackson Laboratory (Bar Harbor, ME, stock number 002019). […] Mice were maintained at a controlled temperature of 22–23 °C, with a 12-h light/12-h dark cycle. Water and standard mouse chow were available ad libitum. […] Their health status was monitored throughout the experiment. […] Mice were euthanized using a CO2 chamber in accordance with the recommendation of the Panel on Euthanasia of the American Veterinary Medical Association. Cervical dislocation was then carried out to confirm death before tumor analysis and tissue collection.

[7] = tested on: RhoA; parameters: method as in PMID 26071482; conditions: cited from earlier work
[8] = tested on: COX-2; parameters: method as in PMID 26558612, PMID 10027870; conditions: cited from earlier work
[9] = ROS model for points below limit of detection

## O=C(c1ccccc1)c1ccc2n1CC[C@H]2C(=O)O [R-ketorolac]
[1]
  Omental engraftment (GFP fluorescence, omental localization of SKOV3ip-GFP cells): decreased the omental localization of SKOV3ip-GFP cells
[2]
  Ovarian tumor cell adhesion, migration and invadopodia formation: inhibited ovarian tumor cell adhesion, migration and invadopodia formation
[2]; ovarian tumor cells
  Cytotoxicity: without cytotoxicity
[3]
  IC50: 0.57 µM
[4]
  IC50: > 100 µM
[5]
  Alanine aminotransferase: 32.30 ± 11.35 U/L
  Albumin: 4.05 ± 0.40 g/dL
  Amylase: 1069 ± 264 U/L
  Blood Urea Nitrogen: 16.4 ± 2.59 mg/dL
  Calcium: 11.58 ± 0.79 mg/dL
  Globulin: 1.77 ± 0.43 g/dL
  Glucose: 287.7 ± 81.31 mg/dL
  Mouse Weight: 23.67 ± 1.30 g
  Phosphorus: 9.86 ± 1.90 mg/dL
  Sodium: 151.3 ± 4.11 mmol/L
  Total Bilirubin: 0.26 ± 0.05 mg/dL
  Total Protein: 5.79 ± 0.34 g/dL
[5]; [9]
  Alkaline phosphatase: 28.97 ± 18.75 U/L
  Creatinin: 0.24 ± 0.13 mg/dL
[6]
  Body weight: No significant difference in body weight
[7]
  Inhibition of RhoA activity: does not inhibit the activity of RhoA
[8]
  IC50: > 100 µM

Source: publication PMC7791840, “The R-enantiomer of ketorolac reduces ovarian cancer tumor burden in vivo” (BMC Cancer, 2021)
